Assay results published in US12162874B2, “Peptidomimetic-based antibody surrogate for HER2” (University of South Florida, priority 2021, dated 2024).
Where “and” joins values, the source holds several entries; their conditions need not be identical. Equal entries are not always repeated. Entries after “also recorded” stand apart in the source; their conditions may differ.

What was measured:
[1] = i.p. every two days for two weeks
Method: SKBR3 cells were harvested, resuspended in PBS, and injected subcutaneously into 4-6 weeks old Male BALB/c nude mice. […] Mice were injected through the intraperitoneal every two days for seven injections.

P-HER2 [2] = assay: Immunohistochemical staining of SKBR3 tumor sections; format: in vivo, mouse; settings: tumors resected after sacrifice
Method: For the immunohistochemical analysis, the hydrated paraffin section was incubated in a blocking solution (10% donkey serum +5% nonfat dry milk +4% BSA +0.1% Triton X-100) for 10 min, and then incubated at 4° C. overnight with anti-P-HER2, P-AKT, P-ERK. After washing with PBS, the sections were incubated with diluted (1:200) biotinylated secondary antibody for 30 min. Subsequently, the sections were washed again in PBS and incubated for 30 min with the preformed avidin-horseradish peroxidase macromolecular complex. Development of peroxidase reaction was achieved by incubation in 0.01% 3, 3-diaminobenzidine tetrahydrochloride (DAB) in PBS containing 0.01% hydrogen peroxide for approximately 5 min at room temperature. Sections were then washed thoroughly in tap water, counterstained in haematoxylin, dehydrated in absolute alcohol, cleared in xylene and mounted in synthetic resin for microscopic examination.

HER2 ECD = molecular target: T1, HER2 ECD (Homo sapiens, UniProt P04626); assay: Surface plasmon resonance (SPR) binding to HER2
T1 construct: Fc (human IgG Fc); purchased Creative BioMart

P-HER2 [3] = assay: Western blot of HER2 phosphorylation in SKBR3 cells; format: cell-based, human; settings: for inhibition of HER2 phosphorylation (in words): SKBR3 cell lysates, western blot; for expression of P-HER2: 10 μM
Method: (§1) SKBR3 cells were seeded into a 6-well plate at a concentration of 1×10^5 cells/well. After 12 h attachment at 37° C. and 5% CO2, the cells were starved overnight in serum-reduced McCoy's 5A Medium followed by treatment with different concentration of M-3-6 or M-3-6-D for 4 h, and then washed with ice-cold PBS and resuspended in ice-cold RIPA buffer supplemented with Halt Protease and Phosphatase Inhibitor Cocktail. Subsequently, the cells were incubated on ice for 10 min and centrifuged at 14,000×g at 4° C. for 10 min. An equal amount of protein was run on 4-12% Bis-Tris gels, transferred to polyvinylidene difluoride membranes (Millipore) and western blotted with anti-phosphorylated HER2, anti-phosphorylated AKT, anti-phosphorylated ERK and GAPDH. The experiments were conducted in triplicates and repeated for three times.

SKBR3 cells = assay: Inhibition of EGF-induced cell proliferation (CCK-8); format: cell-based; settings: SKBR3, EGF 100 ng/mL
Method: SKBR3 cells were cultured in McCoy's 5A Medium (Gibco) medium containing 10% fetal bovine serum and 1% penicillin/streptomycin in an atmosphere of 5% CO2 at 37° C.
SKBR3 cells in good condition were seeded into a 96-well plate at a concentration of 1×10^3 cells/well in 100 μL of complete growth medium. After 24 hours of attachment at 37° C. and 5% CO2, medium was replaced by fresh serum reduced McCoy's 5A Medium and cell were serum-starved overnight. Then serum-reduced EGF (100 ng/mL) McCoy's 5A Medium in the presence of different concentration of M-3-6 and M-3-6-D was added to the cells in hexaplicate. After 72 h, the CCK-8 reagents were added according to the manufacturer's recommendations.

SKBR3 tumor xenograft = assay: Antitumor study in SKBR3 xenograft nude mice, tumor volume; format: in vivo, mouse; settings: for tumor volume after the last drug injection on day 12: after end of dosing, until day 24
Method: Male BALB/c nude mice, 4-6 weeks old, were provided by the Shanghai Bikai Experimental Animal Center, with the license number SOXK (Hu) 2008-0016, and maintained under specific-pathogen-free conditions.
SKBR3 cells were harvested, resuspended in PBS, and injected subcutaneously into 4-6 weeks old Male BALB/c nude mice. […] Mice were injected through the intraperitoneal every two days for seven injections. 12 days after injection, the mice in each group were killed, and the tumors were removed for examination. The tumor volumes were determined by measuring length (1) and width (w) and calculating volume (V=lw^2/2).

P-ERK = assay: Western blot of ERK phosphorylation in SKBR3 cells; format: cell-based; settings: for phosphorylation of ERK (in words): SKBR3 cell lysates, western blot
Method: as §1

pronase = settings: 0.1 mg/mL pronase, 100 mM ammonium bicarbonate buffer, 37° C., 24 h
From the text: Then, the reaction mixtures were concentrated in a speed vacuum to remove water and ammonium bicarbonate. The resulting residues were re-dissolved in H2O/MeCN and analyzed on a Waters analytical HPLC system.

HER2 = molecular target: T2, HER2 (Homo sapiens, UniProt P04626); assay: Fluorescence polarization (FP) binding assay; settings: 50 nM FITC labeled AApeptide, HER2 0 to 2 μM in PBS
T2 construct: Fc (human IgG Fc); purchased Creative BioMart
Method: The FP experiment was performed by incubating 50 nM FITC labeled AApeptides with HER2 (0 to 2 μM) in PBS. Dissociation constants (Kd) was determined by plotting the fluorescence anisotropy values as a function of protein concentration, and the plots were fitted to the following equation. The Lst is the concentration of the AApeptides and the x stands for the concentration of the protein. The experiments were conducted in triplicates and repeated for three times. y=FPmin+(FPmax−FPmin)*(KD+Lst+x-sqrt((KD+Lst+x)^2−4*Lst*x))/(2*Lst)

P-AKT = assay: Western blot of AKT phosphorylation in SKBR3 cells; format: cell-based
Method: as §1

EGFR = EGFR (Homo sapiens, UniProt P00533); assay: Surface plasmon resonance (SPR) binding to EGFR (selectivity)
Method: Next, the binding affinity of both M-3-6 and M-3-6-D to HER2 ECD in vitro were measured by surface plasmon resonance (SPR) assay (FIG. 10 in supporting information). […]. In addition, EGFR, known as ERBB1, another member of the human epidermal growth factor receptor family was chosen to test the selectivity of M-3-6. […].
Binding kinetics of M-3-6 or M-3-6-D to HER2 was measured by surface plasmon resonance (OpenSPR, Nicoyalife). After HER2 was covalently coupled to the carboxyl sensor chips (Nicoyalife), M-3-6 or M-3-6-D in PBS running buffer (pH 7.4) was slowly flowed over the sensor chip for 5 min to allow interaction. The running buffer was then allowed to flow for 10 min to collect the dissociation data. After subtracting the background, the signal response vs. time curve was obtained, binding kinetic parameters were obtained by fitting the curve to a one-to-one binding model using Trace-Drawer (Nicoyalife) software.

[4] = 8 mg/kg i.p. every two days for two weeks

T2 sequence (P04626 23-652): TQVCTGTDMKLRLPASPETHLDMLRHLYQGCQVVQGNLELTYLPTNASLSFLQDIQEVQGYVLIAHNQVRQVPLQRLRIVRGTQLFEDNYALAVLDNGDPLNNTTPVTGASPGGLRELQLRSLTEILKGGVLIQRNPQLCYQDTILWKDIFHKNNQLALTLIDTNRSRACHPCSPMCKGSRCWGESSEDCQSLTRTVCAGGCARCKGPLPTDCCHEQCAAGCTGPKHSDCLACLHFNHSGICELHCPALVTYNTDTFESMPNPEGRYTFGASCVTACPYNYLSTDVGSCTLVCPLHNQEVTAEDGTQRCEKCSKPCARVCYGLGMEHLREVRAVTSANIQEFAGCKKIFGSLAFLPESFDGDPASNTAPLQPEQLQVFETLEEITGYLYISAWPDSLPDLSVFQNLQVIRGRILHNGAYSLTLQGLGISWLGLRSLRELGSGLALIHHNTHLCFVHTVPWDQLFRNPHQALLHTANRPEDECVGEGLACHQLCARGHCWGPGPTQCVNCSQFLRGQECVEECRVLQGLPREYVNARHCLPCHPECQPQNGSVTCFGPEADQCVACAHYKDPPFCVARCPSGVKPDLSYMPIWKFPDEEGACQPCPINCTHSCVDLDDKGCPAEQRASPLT
Sequence of EGFR (P00533 25-1210): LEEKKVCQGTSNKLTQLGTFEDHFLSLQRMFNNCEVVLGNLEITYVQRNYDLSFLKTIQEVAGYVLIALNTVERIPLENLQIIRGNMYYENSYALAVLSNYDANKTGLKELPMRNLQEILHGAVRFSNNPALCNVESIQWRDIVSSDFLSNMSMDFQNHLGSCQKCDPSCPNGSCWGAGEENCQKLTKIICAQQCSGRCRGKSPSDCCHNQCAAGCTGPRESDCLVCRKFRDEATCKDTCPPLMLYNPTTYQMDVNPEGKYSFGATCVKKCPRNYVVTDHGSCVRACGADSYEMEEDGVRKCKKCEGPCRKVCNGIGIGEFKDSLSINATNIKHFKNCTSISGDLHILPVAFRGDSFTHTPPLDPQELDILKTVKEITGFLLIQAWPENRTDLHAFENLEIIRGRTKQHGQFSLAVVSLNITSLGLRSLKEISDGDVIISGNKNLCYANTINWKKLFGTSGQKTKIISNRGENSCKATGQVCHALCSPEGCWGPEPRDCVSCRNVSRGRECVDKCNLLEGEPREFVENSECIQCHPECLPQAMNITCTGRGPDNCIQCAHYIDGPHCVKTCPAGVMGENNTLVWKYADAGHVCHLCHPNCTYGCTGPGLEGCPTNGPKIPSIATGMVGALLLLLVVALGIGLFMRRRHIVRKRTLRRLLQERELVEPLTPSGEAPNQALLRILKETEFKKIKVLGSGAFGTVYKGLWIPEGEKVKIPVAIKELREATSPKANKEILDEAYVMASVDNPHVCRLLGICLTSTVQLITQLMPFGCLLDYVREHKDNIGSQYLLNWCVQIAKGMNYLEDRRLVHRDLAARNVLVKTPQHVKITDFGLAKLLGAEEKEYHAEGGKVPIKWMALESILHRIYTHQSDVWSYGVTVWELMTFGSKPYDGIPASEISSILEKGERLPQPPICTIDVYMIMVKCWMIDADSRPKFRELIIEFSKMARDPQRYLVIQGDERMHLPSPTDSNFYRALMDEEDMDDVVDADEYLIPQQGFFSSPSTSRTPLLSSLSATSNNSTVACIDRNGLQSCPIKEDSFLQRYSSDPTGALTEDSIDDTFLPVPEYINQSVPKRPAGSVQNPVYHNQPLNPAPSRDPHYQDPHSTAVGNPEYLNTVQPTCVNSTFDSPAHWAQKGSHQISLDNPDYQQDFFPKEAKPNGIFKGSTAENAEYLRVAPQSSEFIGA
T1 sequence (P04626 23-652): as the sequence (P04626 23-652) above

Row | SMILES | effect on body weight gain [1] | phosphorylation level of HER2 in tumor sections (P-HER2 [2]) | improvement of binding to HER2 compared with monomer M-3-6 (HER2 ECD) [fold] | inhibition of HER2 phosphorylation (in words) (P-HER2 [3]) | expression of P-HER2 (P-HER2 [3]; SKBR3 cells, 4 h) | inhibition of EGF-induced proliferation (in words) (SKBR3 cells) | tumor volume / antitumor effect (SKBR3 tumor xenograft; [4]) | tumor volume after the last drug injection on day 12 (SKBR3 tumor xenograft) | phosphorylation of ERK (in words) (P-ERK) | degradation by pronase monitored by HPLC (pronase) | Kd (HER2) | IC50 (P-HER2 [3]; SKBR3 cells, 0-30 μM, 4 h, read-out: IC50 inhibition of HER2 phosphorylation) [µM] | IC50 (SKBR3 cells; serum-reduced, 72 h, read-out: IC50 antiproliferative activity on EGF-stimulated cells) [µM] | phosphorylation of AKT (in words) (P-AKT; SKBR3 cell lysates, western blot) | IC50 (P-AKT; SKBR3 cells, 4 h) [µM] | tumor volume / antitumor effect (SKBR3 tumor xenograft; 32 mg/kg i.p. every two days for two weeks) | IC50 (P-ERK; SKBR3 cells, 4 h) [µM] | weaker binding to EGFR than to HER2 (EGFR) [fold]
1 | COc1cc(CC(=O)N2CC(=O)N[C@@H](Cc3ccccc3)CN(C(=O)Cc3ccc4ccccc4c3)CC(=O)N[C@@H](CCCCN)CN(C(=O)Cc3ccc4c(c3)OCO4)CC(=O)N[C@@H](CCCCN)CN(CC(=O)N[C@@H](CCCCNC(=O)COCCOCCNC(=O)Cn3cc(COc4cc(OCc5cn(CC(=O)NCCOCCOCC(=O)NCCCC[C@H](NC(=O)CN6C[C@H](CCCCN)NC(=O)CN(C(=O)Cc7ccc8c(c7)OCO8)C[C@H](CCCCN)NC(=O)CN(C(=O)Cc7ccc8ccccc8c7)C[C@H](Cc7ccccc7)NC(=O)CN(C(=O)Cc7cc(OC)cc(OC)c7)C[C@H](CC(C)C)NC(=O)c7ccc(cc7)CSCCC6=O)C(N)=O)nn5)cc(C(=O)NCCNC(=O)OC(C)(C)C)c4)nn3)C(N)=O)C(=O)CCSCc3ccc(cc3)C(=O)N[C@@H](CC(C)C)C2)cc(OC)c1 [M-3-6-D] | ignorable effect on the body weight gain | comparable efficiency with trastuzumab | ~7 | even stronger inhibition of phosphorylation than M-3-6; also recorded: much more effective phosphorylation inhibition compared with M-3-6 | almost complete blocked | inhibited EGF-induced proliferation significantly in a dose-dependent manner | significantly inhibit the tumor growth; also recorded: significant antitumor effect | significant reduction in tumor volume was still observed | more pronounced effect on the suppression of P-ERK compared with P-AKT | no detectable degradation |  |  |  |  |  |  |  | 
2 | COc1cc(CC(=O)N2CC(=O)N[C@@H](Cc3ccccc3)CN(C(=O)Cc3ccc4ccccc4c3)CC(=O)N[C@@H](CCCCN)CN(C(=O)Cc3ccc4c(c3)OCO4)CC(=O)N[C@@H](CCCCN)CN(CC(=O)NCCC(=O)NC(CCCCNC(=S)Nc3ccc(-c4c5ccc(=O)cc-5oc5cc(O)ccc45)c(C(=O)O)c3)C(N)=O)C(=O)CCSCc3ccc(cc3)C(=O)N[C@@H](CC(C)C)C2)cc(OC)c1 (some centres unmarked) [M-3-6-F] |  |  |  |  |  |  |  |  |  |  | 0.28 µM and 0.278 µM |  |  |  |  |  |  | 
3 | COc1cc(CC(=O)N2CC(=O)N[C@@H](Cc3ccccc3)CN(C(=O)Cc3ccc4ccccc4c3)CC(=O)N[C@@H](CCCCN)CN(C(=O)Cc3ccc4c(c3)OCO4)CC(=O)N[C@@H](CCCCN)CN(CC(N)=O)C(=O)CCSCc3ccc(cc3)C(=O)N[C@@H](CC(C)C)C2)cc(OC)c1 [M-3-6] | ignorable effect on the body weight gain | modest inhibitory effect |  | dose-dependent inhibition of HER2 receptor phosphorylation | relatively high | inhibited EGF-induced proliferation significantly in a dose-dependent manner | no significant reduction in tumor volume | significant tumor growth | reduction in the phosphorylation of AKT and ERK |  |  | 12.9 | 17.9 | reduction in the phosphorylation of AKT and ERK | 16.9 | much more improved antitumor effect | 10.6 | 10
